Test results reported in ChEMBL document CHEMBL1201862, “PubChem BioAssay data set” (2004).
Activity calls are given as the source filed them.

Columns and labels:
[1] = nonselective StAR promoter luciferase inhibitors – cell-based, luminescence, luciferase reporter, counter-screen for LRH-1 inverse agonist project, dose response (AID 651969); format: functional
[2] = target: Nuclear receptor subfamily 5 group A member 2 (Homo sapiens, UniProt O00482); format: functional, cell-based;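 note: HEK293T cells transfected with LRH-1 and a StAR promoter luciferase reporter; potency for inhibitors that lower LRH-1 driven reporter light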
[3] = target: Steroidogenic factor 1 (Homo sapiens, UniProt Q13285); assay: Counterscreen for inverse agonists of the liver receptor homolog-1 (LRH-1; NR5A2): Luminescence-based cell-based high throughput dose response assay to identify inverse agonists of the Steroidogenic Factor 1 Nuclear Receptor (SF1; NR5A1).; format: functional
[4] = target: Beta-lactamase (Pseudomonas aeruginosa, UniProt Q79MP6);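 note: biochemical dose-response test of metallo-beta-lactamase enzyme inhibition, read out by epi-absorbance; purified recombinant IMP-1 metallo-beta-lactamase with nitrocefin as substrate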
[5] = target: Beta-lactamase (Salmonella choleraesuis (strain SC-B67), UniProt Q5J463)
[6] = target: T1, Low molecular weight phosphotyrosine protein phosphatase (Homo sapiens, UniProt P24666); format: functional; settings: read-out: IC50_Mean
T1 sequence (P24666 whole entry): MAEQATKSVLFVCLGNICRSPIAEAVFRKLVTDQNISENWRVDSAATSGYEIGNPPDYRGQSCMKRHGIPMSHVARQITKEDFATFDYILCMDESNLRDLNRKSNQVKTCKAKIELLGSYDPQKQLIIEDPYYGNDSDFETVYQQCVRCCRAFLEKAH

[7] = target: T1, Low molecular weight phosphotyrosine protein phosphatase; format: functional; settings: read-out: IC50_Mean; remark: listed apart in the source
[8] = target: T2, Carboxy-terminal domain RNA polymerase II polypeptide A small phosphatase 1 (Homo sapiens, UniProt Q9GZU7); assay: CTDSP1 inhibitors, concentration-response, biochemical, absorbance readout, ultra-high-throughput screen actives (AID 540297); format: functional
T2 sequence (Q9GZU7 whole entry): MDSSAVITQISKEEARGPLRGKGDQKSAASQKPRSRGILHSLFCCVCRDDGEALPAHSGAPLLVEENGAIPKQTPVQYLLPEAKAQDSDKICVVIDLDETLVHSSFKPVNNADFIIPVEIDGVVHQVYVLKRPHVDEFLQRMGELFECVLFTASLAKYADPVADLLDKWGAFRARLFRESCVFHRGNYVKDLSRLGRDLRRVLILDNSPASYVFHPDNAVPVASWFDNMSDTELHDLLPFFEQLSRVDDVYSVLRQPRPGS

[9] = target: T3, Tyrosine-protein phosphatase non-receptor type 22 (Homo sapiens, UniProt Q9Y2R2); assay: PTPN22 enzyme inhibitors – biochemical, fluorescence, LYP catalytic domain, selectivity assay for LMPTP inhibitor project, dose response (AID 652006); format: functional; settings: read-out: IC50_Mean
T3 sequence (Q9Y2R2 whole entry): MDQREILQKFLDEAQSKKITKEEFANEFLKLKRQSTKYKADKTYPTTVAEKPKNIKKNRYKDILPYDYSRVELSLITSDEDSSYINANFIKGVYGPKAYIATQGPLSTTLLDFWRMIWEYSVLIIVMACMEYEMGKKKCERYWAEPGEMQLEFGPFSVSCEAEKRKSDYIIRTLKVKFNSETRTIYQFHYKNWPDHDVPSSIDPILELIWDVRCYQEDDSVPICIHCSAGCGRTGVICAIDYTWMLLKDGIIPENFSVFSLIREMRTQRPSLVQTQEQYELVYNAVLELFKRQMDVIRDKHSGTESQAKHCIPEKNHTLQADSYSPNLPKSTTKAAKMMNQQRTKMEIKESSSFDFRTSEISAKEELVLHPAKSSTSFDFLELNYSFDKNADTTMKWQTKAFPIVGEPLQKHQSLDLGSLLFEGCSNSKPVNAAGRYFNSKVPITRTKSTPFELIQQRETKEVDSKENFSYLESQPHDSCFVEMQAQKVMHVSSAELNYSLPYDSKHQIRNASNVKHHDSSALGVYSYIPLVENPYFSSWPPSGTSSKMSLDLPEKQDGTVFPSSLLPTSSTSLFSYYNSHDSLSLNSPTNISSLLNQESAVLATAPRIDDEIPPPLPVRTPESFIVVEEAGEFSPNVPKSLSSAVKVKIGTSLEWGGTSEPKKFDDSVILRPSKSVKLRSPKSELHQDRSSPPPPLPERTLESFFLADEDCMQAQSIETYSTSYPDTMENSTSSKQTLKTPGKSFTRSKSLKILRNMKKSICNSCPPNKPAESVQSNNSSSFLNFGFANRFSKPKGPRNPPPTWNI

[10] = system: H9c2; assay: cells; format: functional, cell-based; settings: Rattus norvegicus, H9c2, Myocardium;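 note: confirmatory concentration-response retest of ultra-high-throughput screening hits for modulation of myocardial damage; cell death induced by hydrogen peroxide oxidative stress; compound pretreatment for 60 min then peroxide exposure for 2 h; potency is for protecting the cells against peroxide damage rather than for killing them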
[11] = target: T4, Leucine aminopeptidase (Plasmodium falciparum 3D7, UniProt Q8IL11); assay: P. falciparum M17LAP inhibitors, primary screen, biochemical, fluorogenic H-Leu-NHMec substrate, 1536-well (AID 1619); format: functional
T4 sequence (Q8IL11 whole entry): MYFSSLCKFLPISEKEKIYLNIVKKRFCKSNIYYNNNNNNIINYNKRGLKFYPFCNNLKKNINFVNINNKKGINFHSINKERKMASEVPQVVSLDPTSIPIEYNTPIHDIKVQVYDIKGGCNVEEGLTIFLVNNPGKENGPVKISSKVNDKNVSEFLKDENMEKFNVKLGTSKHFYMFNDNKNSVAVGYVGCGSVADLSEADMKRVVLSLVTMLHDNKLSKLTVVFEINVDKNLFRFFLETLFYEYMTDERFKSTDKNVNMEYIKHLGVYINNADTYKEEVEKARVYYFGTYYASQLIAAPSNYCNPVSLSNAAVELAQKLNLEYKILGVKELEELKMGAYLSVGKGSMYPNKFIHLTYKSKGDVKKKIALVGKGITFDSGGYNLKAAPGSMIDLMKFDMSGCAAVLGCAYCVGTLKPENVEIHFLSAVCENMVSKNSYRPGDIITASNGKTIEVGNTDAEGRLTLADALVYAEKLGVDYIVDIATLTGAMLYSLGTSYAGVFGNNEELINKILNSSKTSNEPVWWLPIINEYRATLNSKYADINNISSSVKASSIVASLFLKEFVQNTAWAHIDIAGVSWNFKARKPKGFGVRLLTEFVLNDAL

[12] = target: T5, Corticotropin-releasing factor receptor 2/Corticotropin-releasing factor-binding protein (Homo sapiens, UniProt P24387+Q13324); assay: Dose Response confirmation of uHTS hits for small molecule antagonists of the CRF-binding protein and CRF-R2 receptor complex.; format: functional; settings: read-out: IC50_Mean
T5 sequence (Q13324 whole entry): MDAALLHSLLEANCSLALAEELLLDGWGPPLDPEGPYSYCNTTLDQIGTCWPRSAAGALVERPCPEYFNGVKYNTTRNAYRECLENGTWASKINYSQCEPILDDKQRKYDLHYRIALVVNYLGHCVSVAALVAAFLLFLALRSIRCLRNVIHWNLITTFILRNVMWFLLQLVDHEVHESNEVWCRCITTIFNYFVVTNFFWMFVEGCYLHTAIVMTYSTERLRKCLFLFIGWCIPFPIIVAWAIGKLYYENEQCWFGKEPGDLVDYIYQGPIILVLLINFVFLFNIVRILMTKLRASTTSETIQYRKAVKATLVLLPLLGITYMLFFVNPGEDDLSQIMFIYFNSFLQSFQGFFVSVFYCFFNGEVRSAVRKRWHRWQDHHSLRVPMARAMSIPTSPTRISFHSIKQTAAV
T5 sequence (P24387 whole entry): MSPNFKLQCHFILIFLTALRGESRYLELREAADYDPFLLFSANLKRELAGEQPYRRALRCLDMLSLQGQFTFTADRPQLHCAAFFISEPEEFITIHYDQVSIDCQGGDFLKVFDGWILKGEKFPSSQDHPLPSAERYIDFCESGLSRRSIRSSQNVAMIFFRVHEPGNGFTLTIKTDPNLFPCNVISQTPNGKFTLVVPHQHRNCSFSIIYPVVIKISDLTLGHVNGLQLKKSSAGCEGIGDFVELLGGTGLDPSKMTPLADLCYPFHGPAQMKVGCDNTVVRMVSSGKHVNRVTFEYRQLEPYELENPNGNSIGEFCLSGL

[13] = target: T5, Corticotropin-releasing factor receptor 2/Corticotropin-releasing factor-binding protein; assay: activators of CRF receptor 2 with binding protein – uHTS hits, confirmation (AID 602473); format: functional; settings: read-out: EC50_Mean
[14] = target: T6, Probable nicotinate-nucleotide adenylyltransferase (Staphylococcus aureus (strain N315), UniProt P65502); format: functional, Staphylococcus aureus subsp. aureus N315; settings: read-out: IC50_Mean;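 for IC50 Mean: confirmatory dose-response retesting of NadD inhibitor hits first found in an ultra-high-throughput screen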
[15] = target: T6, Probable nicotinate-nucleotide adenylyltransferase; format: functional, Staphylococcus aureus subsp. aureus N315
[16] = target: Genome polyprotein (dengue virus type 2, UniProt P29990); assay: flavivirus cap methylation enzyme inhibition – biochemical, confirmation dose response, primary screen (AID 588689); format: functional
[17] = target: Peroxisome proliferator-activated receptor gamma/Nuclear receptor coactivator 2 (Homo sapiens, UniProt P37231); format: functional;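 note: agonist potency for raising coactivator recruitment to the receptor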
[18] = target: T7, SUMO-activating enzyme (Homo sapiens, UniProt Q9UBT2); assay: blockers of UBC9-mediated SUMO conjugation – biochemical, AlphaScreen, SUMOylation inhibitor project, confirmation (AID 2018); format: functional
[19] = target: Peroxisome proliferator-activated receptor gamma/Nuclear receptor coactivator 1 (Homo sapiens, UniProt P37231); format: functional;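 note: agonist potency as compounds enhance coactivator SRC-1 recruitment to PPARgamma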
[20] = viability of HCT116 lacking mutant beta-catenin – cell-based, human colon tumor, dose response (AID 1045); format: functional;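 note: HCT116 colon tumor cells with beta catenin knocked out; cells exposed to compound for 60 hours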
[21] = viability of PTEN-deleted HCT116 cells – cell-based, HCT116 PTEN knockout, dose response (AID 1047); format: functional;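 note: HCT116 colon tumor cells with PTEN knocked out; cells exposed to compound for 60 hours before readout; potency for loss of cell viability measured by luminescence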
[22] = target: Peroxisome proliferator-activated receptor gamma/Nuclear receptor coactivator 3 (Homo sapiens, UniProt P37231); format: functional;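 note: agonist potency for raising coactivator recruitment to the receptor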
[23] = target: T7, SUMO-activating enzyme; assay: blockers of SAE1/SAE2–UBC9 SUMO transfer – biochemical, HTRF, uHTS, primary screen (AID 2006); format: protein-complex assay

T7 sequence (Q9UBE0 whole entry): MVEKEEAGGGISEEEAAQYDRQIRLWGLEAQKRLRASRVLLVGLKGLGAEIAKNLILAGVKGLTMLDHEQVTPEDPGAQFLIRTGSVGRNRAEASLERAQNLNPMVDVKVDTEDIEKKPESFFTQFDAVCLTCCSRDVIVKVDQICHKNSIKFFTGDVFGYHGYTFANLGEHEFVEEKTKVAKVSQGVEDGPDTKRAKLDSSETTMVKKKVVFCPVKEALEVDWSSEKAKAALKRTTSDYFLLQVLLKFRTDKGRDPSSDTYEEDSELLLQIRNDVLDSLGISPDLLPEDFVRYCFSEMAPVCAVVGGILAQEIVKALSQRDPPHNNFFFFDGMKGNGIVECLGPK
T7 sequence (Q9UBT2 whole entry): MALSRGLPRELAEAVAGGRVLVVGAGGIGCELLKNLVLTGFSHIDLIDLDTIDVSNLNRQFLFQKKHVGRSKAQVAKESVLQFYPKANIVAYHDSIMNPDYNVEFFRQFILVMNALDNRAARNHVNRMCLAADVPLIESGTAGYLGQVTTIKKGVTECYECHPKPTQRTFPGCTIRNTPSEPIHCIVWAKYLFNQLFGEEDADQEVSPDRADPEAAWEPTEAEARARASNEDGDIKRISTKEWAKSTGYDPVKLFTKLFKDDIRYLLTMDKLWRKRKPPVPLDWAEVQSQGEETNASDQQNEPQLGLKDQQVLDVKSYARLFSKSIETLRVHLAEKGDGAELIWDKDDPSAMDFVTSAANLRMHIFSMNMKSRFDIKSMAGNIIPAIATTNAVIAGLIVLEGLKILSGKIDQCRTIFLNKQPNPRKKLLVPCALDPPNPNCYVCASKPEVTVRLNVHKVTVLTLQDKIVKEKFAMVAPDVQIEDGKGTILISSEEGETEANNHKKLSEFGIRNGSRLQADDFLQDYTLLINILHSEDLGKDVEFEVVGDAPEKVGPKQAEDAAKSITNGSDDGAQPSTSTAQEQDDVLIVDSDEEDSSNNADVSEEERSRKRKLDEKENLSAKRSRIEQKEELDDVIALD
Chain of Nuclear receptor subfamily 5 group A member 2 (O00482 whole entry): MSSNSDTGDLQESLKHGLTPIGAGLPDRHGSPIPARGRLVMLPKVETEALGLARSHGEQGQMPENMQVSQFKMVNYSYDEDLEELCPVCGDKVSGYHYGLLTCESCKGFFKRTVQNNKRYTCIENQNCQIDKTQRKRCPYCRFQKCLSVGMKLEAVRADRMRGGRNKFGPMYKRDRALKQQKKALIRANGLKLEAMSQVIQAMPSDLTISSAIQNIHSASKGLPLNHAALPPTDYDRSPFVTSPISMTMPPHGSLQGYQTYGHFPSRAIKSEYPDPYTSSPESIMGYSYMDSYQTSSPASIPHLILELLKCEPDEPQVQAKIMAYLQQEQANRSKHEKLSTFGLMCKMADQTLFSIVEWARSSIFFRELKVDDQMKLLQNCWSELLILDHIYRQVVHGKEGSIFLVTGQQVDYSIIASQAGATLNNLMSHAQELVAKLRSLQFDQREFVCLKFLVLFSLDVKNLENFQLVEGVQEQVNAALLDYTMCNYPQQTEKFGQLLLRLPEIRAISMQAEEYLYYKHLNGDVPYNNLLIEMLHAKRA
Chain of Steroidogenic factor 1 (Q13285 whole entry): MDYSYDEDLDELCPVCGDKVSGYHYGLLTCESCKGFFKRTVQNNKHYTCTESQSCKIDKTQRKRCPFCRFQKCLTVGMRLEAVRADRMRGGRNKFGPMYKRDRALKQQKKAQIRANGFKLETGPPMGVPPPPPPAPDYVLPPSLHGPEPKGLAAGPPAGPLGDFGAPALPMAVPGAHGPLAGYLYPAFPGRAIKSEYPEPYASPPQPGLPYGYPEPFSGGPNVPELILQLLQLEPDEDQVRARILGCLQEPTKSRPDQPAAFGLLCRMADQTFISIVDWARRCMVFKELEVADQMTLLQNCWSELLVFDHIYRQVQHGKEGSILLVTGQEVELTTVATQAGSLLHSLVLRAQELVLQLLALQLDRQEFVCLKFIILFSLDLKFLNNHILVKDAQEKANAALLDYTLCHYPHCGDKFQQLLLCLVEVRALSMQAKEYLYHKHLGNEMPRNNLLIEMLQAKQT
T6 sequence (P65502 whole entry): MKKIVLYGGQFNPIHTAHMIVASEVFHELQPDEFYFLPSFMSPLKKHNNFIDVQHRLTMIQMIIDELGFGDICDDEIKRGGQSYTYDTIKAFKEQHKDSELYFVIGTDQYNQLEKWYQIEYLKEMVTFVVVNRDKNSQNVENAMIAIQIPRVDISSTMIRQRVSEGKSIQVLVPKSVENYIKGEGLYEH
Chain of Beta-lactamase (Pseudomonas aeruginosa, UniProt Q79MP6) (Q79MP6 whole entry): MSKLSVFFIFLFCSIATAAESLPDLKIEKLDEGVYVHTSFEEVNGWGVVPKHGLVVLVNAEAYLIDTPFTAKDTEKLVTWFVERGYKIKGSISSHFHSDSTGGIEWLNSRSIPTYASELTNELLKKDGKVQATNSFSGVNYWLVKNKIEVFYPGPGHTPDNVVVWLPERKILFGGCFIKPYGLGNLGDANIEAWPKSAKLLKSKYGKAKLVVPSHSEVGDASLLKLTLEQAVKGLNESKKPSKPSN
Chain of Peroxisome proliferator-activated receptor gamma/Nuclear receptor coactivator 1 (P37231 whole entry): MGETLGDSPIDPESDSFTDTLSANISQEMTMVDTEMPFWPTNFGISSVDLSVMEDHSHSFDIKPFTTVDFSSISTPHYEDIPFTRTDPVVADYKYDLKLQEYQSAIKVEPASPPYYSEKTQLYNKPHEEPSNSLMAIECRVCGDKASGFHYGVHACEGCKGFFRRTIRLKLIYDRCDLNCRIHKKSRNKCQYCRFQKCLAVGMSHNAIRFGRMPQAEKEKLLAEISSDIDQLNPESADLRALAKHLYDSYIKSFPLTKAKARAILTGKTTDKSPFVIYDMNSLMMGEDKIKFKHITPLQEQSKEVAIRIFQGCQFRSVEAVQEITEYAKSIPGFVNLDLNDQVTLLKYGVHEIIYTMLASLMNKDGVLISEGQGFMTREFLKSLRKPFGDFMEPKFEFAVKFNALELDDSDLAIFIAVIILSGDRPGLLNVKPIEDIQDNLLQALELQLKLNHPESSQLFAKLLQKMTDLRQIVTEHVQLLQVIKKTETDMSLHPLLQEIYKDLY
Chain of Peroxisome proliferator-activated receptor gamma/Nuclear receptor coactivator 1 (Q15788 whole entry, further chain): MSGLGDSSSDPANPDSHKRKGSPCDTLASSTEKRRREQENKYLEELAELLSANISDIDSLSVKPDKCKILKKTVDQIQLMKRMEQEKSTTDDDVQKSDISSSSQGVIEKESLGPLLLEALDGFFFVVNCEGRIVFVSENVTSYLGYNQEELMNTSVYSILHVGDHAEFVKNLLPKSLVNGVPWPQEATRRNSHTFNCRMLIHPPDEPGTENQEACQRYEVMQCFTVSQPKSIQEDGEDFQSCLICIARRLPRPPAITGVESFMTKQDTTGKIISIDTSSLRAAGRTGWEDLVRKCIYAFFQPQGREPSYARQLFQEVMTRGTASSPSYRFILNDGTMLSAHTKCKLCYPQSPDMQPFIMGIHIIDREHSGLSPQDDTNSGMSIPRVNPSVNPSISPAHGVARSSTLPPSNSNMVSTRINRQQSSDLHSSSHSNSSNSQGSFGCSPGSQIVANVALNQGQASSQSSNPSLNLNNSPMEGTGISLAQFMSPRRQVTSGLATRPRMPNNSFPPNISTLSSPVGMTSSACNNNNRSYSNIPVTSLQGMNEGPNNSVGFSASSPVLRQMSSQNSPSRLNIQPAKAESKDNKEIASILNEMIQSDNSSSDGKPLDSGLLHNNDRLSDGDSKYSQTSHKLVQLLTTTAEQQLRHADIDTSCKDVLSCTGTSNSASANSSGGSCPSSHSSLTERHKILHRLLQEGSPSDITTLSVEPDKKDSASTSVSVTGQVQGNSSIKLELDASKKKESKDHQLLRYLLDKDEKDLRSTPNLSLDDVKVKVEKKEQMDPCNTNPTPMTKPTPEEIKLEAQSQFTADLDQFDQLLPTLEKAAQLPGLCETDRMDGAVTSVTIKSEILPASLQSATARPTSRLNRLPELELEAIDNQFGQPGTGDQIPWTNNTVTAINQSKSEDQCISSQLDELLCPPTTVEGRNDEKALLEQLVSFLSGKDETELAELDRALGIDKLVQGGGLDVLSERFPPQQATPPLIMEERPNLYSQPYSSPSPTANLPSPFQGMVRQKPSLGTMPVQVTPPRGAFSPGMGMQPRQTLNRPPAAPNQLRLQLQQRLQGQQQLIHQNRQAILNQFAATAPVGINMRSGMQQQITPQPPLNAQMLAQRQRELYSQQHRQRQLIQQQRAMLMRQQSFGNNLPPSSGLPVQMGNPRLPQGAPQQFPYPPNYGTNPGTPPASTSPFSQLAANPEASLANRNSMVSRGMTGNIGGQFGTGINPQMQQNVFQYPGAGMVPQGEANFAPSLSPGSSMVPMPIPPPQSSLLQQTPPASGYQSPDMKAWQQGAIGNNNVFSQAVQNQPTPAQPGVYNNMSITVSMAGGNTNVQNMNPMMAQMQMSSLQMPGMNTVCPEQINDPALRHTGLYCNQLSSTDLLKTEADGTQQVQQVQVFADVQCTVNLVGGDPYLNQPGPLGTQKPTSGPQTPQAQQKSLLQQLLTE
Chain of Beta-lactamase (Salmonella choleraesuis (strain SC-B67), UniProt Q5J463) (Q5J463 whole entry): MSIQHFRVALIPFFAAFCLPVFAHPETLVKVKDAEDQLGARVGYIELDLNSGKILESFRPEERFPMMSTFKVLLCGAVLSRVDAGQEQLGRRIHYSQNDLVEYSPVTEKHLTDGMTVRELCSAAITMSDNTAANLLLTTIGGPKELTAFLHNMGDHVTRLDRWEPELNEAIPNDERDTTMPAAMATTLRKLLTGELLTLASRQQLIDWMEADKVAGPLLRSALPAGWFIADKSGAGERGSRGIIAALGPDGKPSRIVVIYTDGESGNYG

O=[N+]([O-])c1ccc(N2CCN(S(=O)(=O)c3ccccc3)CC2)cc1NCc1cccnc1
IC50 [1]: 35.9 µM (inactive)
IC50 [2]: 14.8 µM (inactive)
IC50 [3]: 5.39 µM (active)

O=C(Nc1ccc2oc(-c3ccccc3F)nc2c1)c1ccc([N+](=O)[O-])o1
IC50 [4]: > 59.6 µM (inactive)
IC50 [5]: > 59.6 µM (inactive)
IC50 [6]: 3.72 µM (active)
IC50 [7]: 3.79 µM (active)
IC50 [8]: 1.23 µM (active)
IC50 [9]: 7.64 µM (active)
IC50 [10]: > 79 µM (inactive)

Cc1cccc(NC(=O)CSc2nc3n[nH]cc3c(=O)[nH]2)c1C
IC50 [11]: 4.46 µM (active)
IC50 [12]: > 47.1 µM (inactive)
EC50 [13]: > 53 µM (inactive)
IC50 [2]: 6.29 µM (active)
IC50 [3]: 2.59 µM (active)

CCOc1ccc(NS(=O)(=O)c2ccc(Cl)c(NN=C3C(=O)NC(=S)NC3=O)c2)cc1Br
IC50 [14]: 55 µM (active)
IC50 [15]: 5.55 µM (active)
IC50 [16]: 44.1 µM (active)

CCOC(=O)Cn1/c(=N/C(=O)c2sc3ccccc3c2Cl)sc2cc(S(N)(=O)=O)ccc21
EC50 [17]: 7.96 µM (active)
IC50 [18]: 11.8 µM (active)
EC50 [19]: 11.3 µM (not active)
EC50 [20]: 46.4 µM (active)
EC50 [21]: 72.5 µM (active)
IC50 [6]: 27.7 µM (inactive)
IC50 [7]: 16.4 µM (active)
IC50 [8]: 2.06 µM (active)
EC50 [22]: 14.3 µM (not active)
IC50 [9]: 52.2 µM (inactive)
IC50 [23]: 4.97 µM (active)
